In ChEMBL document CHEMBL5726941, “Naphthyridine compounds, medical combinations and use thereof” (2018) one finds IC50 data, which are given here for one molecule.

This assay deals with Hepatocyte growth factor receptor (Homo sapiens, UniProt P08581). Put plainly: Inhibition Assay: A study on inhibition of protein kinases activity at in vitro biochemical levelMaterial and method: kinases such as c-Met, VEGFR-2, Axl and RET, obtained from Invitrogen; HTRF KinEASE; TK kit (Cisbio Company); 384-well plate (Greiner Company); ATP (Sigma Company), MgCl2 (Sigma Company); PHERAstar FS multifunctional plate reader (BMG Company); conventional centrifuge (StaiteXiangyi Company); incubator (Binder Company). […] Meanwhile, 4 μL 1.33× enzymatic buffer is added as the negative control. 2 μL compound working solution is added into each well, and 2 μL 8% DMSO in water is added as zero compound level control (i.e., positive control). At 25° C. (or 30 C), incubate for 5-10 min; add 2 μL substrate working solution into each well to initiate the enzymatic reaction. Allow to react while shaking at 25° C. (or 30° C.) for 15-60 min. For orientation: Time-resolved FRET reads energy transfer from a long-lived donor to a nearby acceptor.
Chain of Hepatocyte growth factor receptor (P08581 whole entry): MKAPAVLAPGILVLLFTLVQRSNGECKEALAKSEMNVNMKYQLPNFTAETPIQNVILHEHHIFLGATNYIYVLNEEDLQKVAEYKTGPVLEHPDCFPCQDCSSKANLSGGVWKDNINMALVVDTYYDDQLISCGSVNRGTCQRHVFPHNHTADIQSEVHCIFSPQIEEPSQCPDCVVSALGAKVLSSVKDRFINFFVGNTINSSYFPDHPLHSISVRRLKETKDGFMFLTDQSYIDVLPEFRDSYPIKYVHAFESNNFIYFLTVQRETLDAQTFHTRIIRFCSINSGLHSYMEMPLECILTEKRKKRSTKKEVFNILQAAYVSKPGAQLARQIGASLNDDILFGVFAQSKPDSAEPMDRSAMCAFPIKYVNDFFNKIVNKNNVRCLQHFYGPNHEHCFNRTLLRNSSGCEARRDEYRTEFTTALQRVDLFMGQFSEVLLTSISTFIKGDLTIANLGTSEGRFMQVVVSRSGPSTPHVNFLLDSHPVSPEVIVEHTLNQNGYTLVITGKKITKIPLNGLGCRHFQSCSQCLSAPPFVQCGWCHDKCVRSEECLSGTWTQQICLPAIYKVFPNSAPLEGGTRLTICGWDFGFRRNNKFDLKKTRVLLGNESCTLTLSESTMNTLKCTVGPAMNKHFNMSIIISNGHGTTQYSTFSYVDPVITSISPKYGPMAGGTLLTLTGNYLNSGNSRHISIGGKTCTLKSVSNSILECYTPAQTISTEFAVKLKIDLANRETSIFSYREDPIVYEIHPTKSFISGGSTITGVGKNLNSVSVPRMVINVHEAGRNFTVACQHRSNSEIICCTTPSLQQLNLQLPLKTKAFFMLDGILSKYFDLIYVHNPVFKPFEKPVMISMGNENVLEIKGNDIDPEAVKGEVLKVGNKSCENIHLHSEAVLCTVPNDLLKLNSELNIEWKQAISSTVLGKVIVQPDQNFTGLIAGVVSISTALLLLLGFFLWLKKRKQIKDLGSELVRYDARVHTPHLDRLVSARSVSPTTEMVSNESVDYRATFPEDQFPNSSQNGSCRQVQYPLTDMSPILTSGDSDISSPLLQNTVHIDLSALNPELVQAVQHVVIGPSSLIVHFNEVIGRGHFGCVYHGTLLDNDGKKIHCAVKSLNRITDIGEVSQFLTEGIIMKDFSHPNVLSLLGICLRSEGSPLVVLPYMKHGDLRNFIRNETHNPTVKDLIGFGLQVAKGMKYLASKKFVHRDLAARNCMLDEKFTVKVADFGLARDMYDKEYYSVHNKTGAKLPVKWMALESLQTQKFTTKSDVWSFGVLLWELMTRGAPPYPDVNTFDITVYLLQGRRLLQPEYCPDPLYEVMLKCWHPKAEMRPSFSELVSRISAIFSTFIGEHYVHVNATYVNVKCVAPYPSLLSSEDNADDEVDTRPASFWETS

On to `COc1cc2nccc(Oc3ccc(Nc4nccc5[nH]cc(-c6ccc(F)cc6)c(=O)c45)cc3F)c2cc1OC`, for which the midpoint of inhibition, the IC50, lay at 143 nM.

The IC50 is the concentration at which inhibition is half-maximal. Higher therefore signals lower potency.
